# Experiments:
# [1] = target: Angiotensin II Receptor; experiment: AII receptor ligand-receptor binding assay (rat adrenal cortical microsomes, displacement of 3H-AII or 125I-AII); details: Table 7, 1 hour, room temperature
# Method: The hormone angiotensin II (AII) produces numerous biological responses (e.g. vasoconstriction) through stimulation of its receptors on cell membranes. For the purpose of identifying compounds such as AII antagonists which are capable of interacting with the AII receptor, a ligand-receptor binding assay was utilized for the initial screen. The assay was carried out according to the method described by [Glossmann et al., J. Biol. Chem., 249, 825 (1974)], but with some modifications. The reaction mixture contained rat adrenal cortical microsomes (source of AII receptor) in Tris buffer and 2 nM of ^3 H-AII or 0.05 nM ^125 I-AII with or without potential AII antagonist. This mixture was incubated for 1 hour at room temperature and the reaction was subsequently terminated by rapid filtration and rinsing through glass micro-fibre filter. Receptor-bound ^3 H-AII or ^125 I-AII trapped in filter was quantitated by scintillation counting. The inhibitory concentration (IC50) of potential AII antagonist which gives 50% displacement of the total specifically bound ^3 H-AII or ^125 I-AII is a measure of the affinity of such compound for the AII receptor.
# [2] = tested on: awake rats made hypertensive by ligation of the left renal artery; experiment: Antihypertensive effects in renal hypertensive rats (left renal artery ligation); type: in vivo, rat; details: for Antihypertensive Effects in Renal Hypertensive Rats, Intravenous Activity: 3 mg/kg; for Antihypertensive Effects in Renal Hypertensive Rats, Oral Activity: 30 mg/kg
# Method: Blood pressure levels after treatment are compared to pretreatment levels to determine the antihypertensive effects of the compounds which were tested.
# [3] = tested on: effects of AII on the blood pressure of pithed rats; details: cited from earlier work
# [4] = tested on: mammals and man; details: cited from earlier work
# [5] = tested on: renal vasoconstrictor effect of indomethacin and meclofenamate in dogs; details: cited from earlier work
Structure (SMILES),IC50 [1] [µM],"Antihypertensive Effects in Renal Hypertensive Rats, Intravenous Activity [2]","Antihypertensive Effects in Renal Hypertensive Rats, Oral Activity [2]",other results
"CNCC(=O)N[C@@H](CCCN=C(N)N)C(=O)N[C@H](C(=O)N[C@@H](Cc1ccc(O)cc1)C(=O)N[C@H](C(=O)N[C@@H](Cc1cnc[nH]1)C(=O)N1CCC[C@H]1C(=O)N[C@@H](C)C(=O)O)C(C)C)C(C)C [Saralasin, [Sar^1, Ala^8] AII]",–,–,–,antagonism of AII effects on blood pressure [3]: one of the most potent competitive antagonists of the actions of AII; oral effectiveness ([4]; oral doses): oral doses being ineffective; duration of pharmacological effects ([4]; parenteral administration): relatively short-lasting; lowering of arterial pressure ([4]; when the elevated pressure is dependent on circulating AII): lower arterial pressure in mammals and man; pressor effects ([4]; when the pressure is not sustained by AII): generally elicits pressor effects when the pressure is not sustained by AII; effect on renal vasoconstriction by NSAID [5]: inhibit the renal vasoconstrictor effect of indomethacin and meclofenamate in dogs
C[C@H](CS)C(=O)N1CCC[C@H]1C(=O)O [captopril],–,–,–,effect on renal vasoconstriction by NSAID [5]: reverse the renal vasoconstrictor effect of indomethacin in dogs with non-hypotensive hemorrhage
CCCc1nc(/C=C\c2ccc3ccccc3c2)c(C=O)n1Cc1ccc(-c2ccccc2-c2nn[nH]n2)cc1 [Example 97],0.54,+ (Significant decrease in blood pressure at 3.0 mg/kg or less),–,–
CCCc1nc(-c2cc3ccccc3c3ccccc23)c(C=O)n1Cc1ccc(-c2ccccc2-c2nn[nH]n2)cc1 [Example 24],0.17,+ (Significant decrease in blood pressure at 3.0 mg/kg or less),NA (Not active at 3 mg/kg or 30 mg/kg dosage tested),–
CCCc1nc(/C=C/c2cccc3ccccc23)c(C=O)n1Cc1ccc(-c2ccccc2-c2nn[nH]n2)cc1 [Example 96],0.56,+ (Significant decrease in blood pressure at 3.0 mg/kg or less),–,–

# Further lines, with some results ahead:
IC50 [1] [µM],Structure (SMILES),"Antihypertensive Effects in Renal Hypertensive Rats, Intravenous Activity [2]","Antihypertensive Effects in Renal Hypertensive Rats, Oral Activity [2]",other results
0.17,CCCc1nc(-c2ccc(F)c3ccccc23)c(C=O)n1Cc1ccc(-c2ccccc2-c2nn[nH]n2)cc1 [Example 8],NA (Not active at 3 mg/kg or 30 mg/kg dosage tested),–,–
0.013,CCCc1nc(/C=C\c2cccc3ccccc23)c(C=O)n1Cc1ccc(-c2ccccc2-c2nn[nH]n2)cc1 [Example 95],+ (Significant decrease in blood pressure at 3.0 mg/kg or less),+ (Significant decrease in blood pressure at 30 mg/kg or less),–
0.029,CCCc1nc(-c2cc3ccccc3s2)c(C=O)n1Cc1ccc(-c2ccccc2-c2nn[nH]n2)cc1 [Example 7],NA (Not active at 3 mg/kg or 30 mg/kg dosage tested),–,–
0.11,CCCc1nc(-c2cc3ccccc3o2)c(C=O)n1Cc1ccc(-c2ccccc2-c2nn[nH]n2)cc1 [Example 41],+ (Significant decrease in blood pressure at 3.0 mg/kg or less),+ (Significant decrease in blood pressure at 30 mg/kg or less),–
0.021,"CCCc1nc(-c2cccc3ccccc23)c(C=O)n1Cc1ccc(-c2ccccc2-c2nnn[nH]2)cc1 [Example 1, 4-(naphth-1-yl)-2-n-propyl-1-[(2'-(1H-tetrazol-5-yl)biphenyl-4-yl)methyl]imidazole-5-carboxaldehyde]",+ (Significant decrease in blood pressure at 3.0 mg/kg or less),+ (Significant decrease in blood pressure at 30 mg/kg or less),–
0.16,CCCc1nc(-c2ccc3cc(OC)ccc3c2)c(C=O)n1Cc1ccc(-c2ccccc2-c2nn[nH]n2)cc1 [Example 11],NA (Not active at 3 mg/kg or 30 mg/kg dosage tested),–,–
0.099,CCCc1nc(-c2ccc3ccccc3c2)c(C=O)n1Cc1ccc(-c2ccccc2-c2nn[nH]n2)cc1 [Example 10],NA (Not active at 3 mg/kg or 30 mg/kg dosage tested),NA (Not active at 3 mg/kg or 30 mg/kg dosage tested),–
0.49,CCCc1nc(-c2ccc3c4c(cccc24)CC3)c(C=O)n1Cc1ccc(-c2ccccc2-c2nn[nH]n2)cc1 [Example 9],NA (Not active at 3 mg/kg or 30 mg/kg dosage tested),–,–
